The assay deals with A. tumefaciens NTL4. In kind it is cell-based, Agrobacterium tumefaciens. As to conditions: for highest expression level (green fluorescence intensity, sfgfp reporter): highest induction concentration 10^3 μM; for basal expression level (green fluorescence intensity, sfgfp reporter): lowest induction concentration 10^−3 μM. The procedure:
GFP measurement. An inoculum of A. tumefaciens was grown overnight to stationary phase and then transferred to fresh media at a 1:100 dilution. The new inocula were added with inducers to a final concentration of 1×10^−3 to 1×10^3 μmol/ml when their optical density at 600 nm (OD600) reached 0.5. After 6 h of incubation, cells were collected and resuspended in 1×PBS buffer. Then 100 μL of suitably diluted cultures were added into 96-well microtiter plates. OD600 and relative green fluorescence were measured by a BioTek® microplate reader H1. Congo red plate assay. The dye was dissolved in ddH2O at 20 mg ml^−1 and passed through 0.2 μm filters immediately. Four ml of filtered Congo Red was added per L (final concentration: 80 μg/ml) to generate LB-CR agar medium. The overnight cultured cultures were diluted to an OD600 of 1.0. 10 μl cultures were plated on LB-CR agar with appropriate antibiotics, followed by incubation at 30° C. for 24 hours.
A reliable induction system is required to achieve precise control of gene expression. […] An ori from the broad host-range plasmid pBBR1, which propagates in both E. coli and A. tumefaciens, was utilized for the origin of replication (Szpirer et al., J Bacteriol. 183:2101-2110, 2001). To evaluate the performance of these inducible systems, a green fluorescence protein gene (sfgfp) was utilized as a reporter gene, and placed under the control of the corresponding inducible promoters, Ptac, Pcym, Pvan, PBAD, Pug and Psal, respectively. The repressor genes of the inducible systems (lacI, cymR, vanR, araE, ttgR and nahR) were driven by a common constitutive promoter (Pcon). The resulting inducible “expression circuits” were transformed into A. tumefaciens NTL4.
To evaluate these induction systems, green fluorescence intensities of cells transformed with the plasmids were measured at various concentrations of inducers, ranging from 10^−3 to 10^3 μM.

As for `O=C1C[C@@H](c2ccc(O)cc2)Oc2cc(O)cc(O)c21` [Nar, naringenin], the “highest expression level (green fluorescence intensity, sfgfp reporter)” value is reported as 1.2×10^4 and the “basal expression level (green fluorescence intensity, sfgfp reporter)” value is given as 1.8×10^2.
Taken in the same sequence, the figures for `CC(C)S[C@@H]1O[C@H](CO)[C@H](O)[C@H](O)[C@H]1O` [IPTG, β-d-1-thiogalactopyranoside] were 5.2×10^5 and 6.6×10^4.
On the same counts, the results for `COc1cc(C(=O)O)ccc1O` [Van, vanillic acid] are 7.7×10^4 and 3.1×10^2.
Taken in the same sequence, the figures for `CC(C)c1ccc(C(=O)O)cc1` [Cum, cumic acid] were 3×10^4 and 1.4×10^2.
`O=C[C@@H](O)[C@H](O)[C@H](O)CO` [Ara, arabinose]: the “highest expression level (green fluorescence intensity, sfgfp reporter)” value was 1.8×10^3 and the “basal expression level (green fluorescence intensity, sfgfp reporter)” value is recorded as 5.5×10^2.

The values above are taken from patent US20220411811A1, “SYNTHETIC TOOLKIT FOR PLANT TRANSFORMATION” (priority 2021, published 2022).
